# Biological target: T1, recombinant T. circumcincta DPY-31 (Tc rDPY-31) (Teladorsagia circumcincta, UniProt A0A0C5PRQ1)
# T1 construct: catalytic astacin domain only (684 bp codon-optimised synthetic gene), His-tagged, pET-28a(+) NdeI/XhoI, E. coli BL21 (DE3), Ni-NTA, 23 kDa; full-length precursor 614 residues
# T1 sequence (A0A0C5PRQ1 151-378 limits assumed): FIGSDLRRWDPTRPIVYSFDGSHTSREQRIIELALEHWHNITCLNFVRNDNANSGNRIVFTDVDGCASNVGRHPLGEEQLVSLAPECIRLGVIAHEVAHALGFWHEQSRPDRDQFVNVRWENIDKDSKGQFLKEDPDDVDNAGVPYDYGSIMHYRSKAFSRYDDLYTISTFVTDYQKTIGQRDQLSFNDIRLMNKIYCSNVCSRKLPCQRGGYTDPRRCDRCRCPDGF
# Assay: chromogenic protease assay, Suc-Ala-Ala-Ala-pNA, […] nm
# Format: biochemical
# Details: read-out: Effective concentration against T. circumcincta rDPY-31 ^d
smiles,measurement,value
CCCCC[C@H](CC(=O)NO)C(=O)N[C@H](C(=O)N1CCC[C@H]1CO)C(C)C [Actinonin],IC50,50 µM
